Data reported in patent US4990498A, “2- and 8-azido(2'-5')oligoadenylates and antiviral uses thereof” (Temple University-of the Commonwealth System of Higher …, priority 1988, dated 1991).

Legend:
RNase L [1] = assay: rRNA cleavage assay: activation of RNase L in L929 cell extracts; assay type: biochemical, murine; details: for final concentration at which RNase L is activated to degrade rRNA to specific cleavage products / concentration dependence of rRNA degradation / potency in rRNA degradation relative to authentic p3 A3: L929 cell extracts; for final concentration at which RNase L is activated to degrade rRNA to specific cleavage products: "as low as"; for concentration dependence of rRNA degradation / potency in rRNA degradation relative to authentic p3 A3 / biological activity (RNase L binding and activation) relative to authentic 2-5A: in words
Experimental: FIG. 2 represents a rRNA cleavage assay with 2-azido-p3 A3 and 8-azido-p3 A3 L929 cell extracts were incubated in the absence (lane 4) or presence of p3 A3 (lane 1), 2-azido-p3 A3 (lane 2), or 8-azido-p3 A3 (lane 3) at 1 x 10^-8 M final concentrations. The positions of 28S and 18S rRNA, and the positions of RNase L specific cleavage products ("SCP"), are indicated.
Activation of RNase L by the compounds of the invention was also measured in a ribosomal RNA cleavage assay using L929 cell extracts. The extracts were prepared in glycerol buffer in 15 microliters final volume as described by Kariko et al., Biochem. Biophys. Res. Commun. 128:695-698 (1985).

[2] = tested on: 2-5A binding proteins from L929 cells (believed to be forms of RNase L); assay: Photoaffinity labelling / covalent cross-linking of 2-5A binding proteins in interferon-treated L929 cell extracts (SDS-PAGE, autoradiography); design: species or system murine; details: for UV exposure time for maximal photo-crosslinking: 254 nm, 0° C.; for molecular weight of protein(s) specifically photolabelled / cross-linked: L929 cell extracts; for molecular weight of protein(s) specifically photolabelled / cross-linked / number of proteins photolabelled / cross-linked: 60 s UV; for number of proteins photolabelled / cross-linked: interferon-treated L929 cell extracts
Experimental: FIG. 3A is an autoradiogram following SDS-PAGE of interferon-treated L929 cell extracts incubated with [gamma-^32 P]2-azido-p3 A3 at 1×10^-6 M in the absence (lane 1) or presence of p3A3 at 1×10^-5 M and 1×10^-4 M (lanes 2 and 3, respectively).The samples were UV-irradiated for 60 seconds at 0° C. prior to electrophoresis. Photolabelled proteins were detected by autoradiography. Molecular weight standards are indicated.
FIG. 4A is an autoradiogram following SDS-PAGE of interferon treated L929 cell extracts incubated with [alpha-^32 P]8-azido-p3 A3 at 1×10^-6 M in the absence (lanes 1 and 2) or presence of the following: p3 A3 at 1×10^-4 M (lane 3); p3 A3 at 5×10^-4 M (lane 4); or 3'-5'A3 at 5×10^-4 M (lane 5). The samples were UV irradiated (lanes 2-6) for 60 seconds at 0° C. prior to electrophoresis. Under identical experimental conditions, the L929 cell extract was incubated with p3 A4 [^32 P]pCp at 1×10^-8 M (lane 6). Photolabelled proteins were detected by autoradiography.
Ten microliters of L929 cell extracts (100 micrograms protein/assay) were combined with 10 microliters of a buffer (140 mM NaCl, 35 mM Tris-HCl, pH 7.5) and were incubated in the presence of 1×10^-6 M [gamma-^32 p]2-azido -p3 A3 (0.9 microCi/nmol) or 1×10^-6 M [alpha-^32 p]8-azido -p3 A3 (0.9 microCi/nmol) or 1×10^-9 M p3 A4 [^32 P]pCp (3 mCi/nmol) in a 30 microliter final volume. The samples, after incubation in microcentrifuge tubes at 0° C. for 90 minutes, were transferred into ice-mold porcelain spot plates and photolysed for 60 seconds using a 254 nm UVG-11 Mineralight lamp (Ultraviolet Products, Inc.) at a distance of 2 cm (1.0 J/m^2). Sixty microliters of a reductive, protein-solubilizing mixture (15.4 mg/ml dithiothreitol, 25% w/v sucrose, 2.5% sodium dodecylsulfate, 25 mM TrisHCl, pH 8.0, 0.0025% pyronine Y) were added to the samples. Photo-incorporation of the ^32 P-labeled 2-azido-p3 A3 and 8-azido-p3 A3 into the L929 protein was determined by SDS-PAGE (Lamelli, Nature (London) 227:680-685 (1970)). The SDS-PAGE gels were stained with Coomassie blue, dried and subject to autoradiography at -70° C. with X-Omat film (Kodak).

RNase L [3] = assay: Radiobinding assay: competition with p3 A4 [^32 P]pCp for binding to RNase L in L929 cell extracts; design: species or system murine; details: in words
Experimental: RNase L was obtained from L929 cells by the following procedure. The L929 cells were maintained in monolayer culture in Dulbecco's modified Eagle medium supplemented with 5% bovine serum. Monolayers were tested with 200 units/ml of mouse interferon for 20 hours. Cell extracts of the L929 cells were prepared by collecting the cells by trypsinization, washing them once with phosphate-buffered saline and lysing the cells in NP40 buffer according to the method of Silverman, et al., Eur. J. Biochem. 124:131-138 (1982).
The ability of 8-azido-p3 A3 to compete with p3 A4 -[^32 P]pCp for binding to RNase L in the L929 cell extracts was compared to p3 A3 using radiobinding assays (50 micrograms of protein/assay) according to the method of Knight et al., Methods Enzymol. 79:216-227 (1981). […] 8-Azido-p3 A3 (FIG. 1A, solid circle data points) binds to RNase L with an IC50 of 2×10^-9 M, which is equivalent to the IC50 of authentic p3 A3 (FIG. 1A, solid triangle data points).

RNase L [4] = assay: Core-cellulose assay: activation of partially purified RNase L to hydrolyze poly(U)[^32 P]pCp; assay type: biochemical, murine; details: in words
Text: The recently developed core cellulose assay of Silverman, Anal. Biochem. 144:450-460 (1985), which involves the immobilization and partial purification of RNase L on 2-5A core-cellulose, was used to measure the ability of 8-azido-p3 A3 to activate RNase L. For this purpose, poly(U)[^32 P]pCp was synthesized from poly(U) using T4 RNA ligase, as described by Silverman. 8-Azido-p3 A3 (solid circle data

RNase L [5] = assay: rRNA cleavage assay with photolabelled RNase L/8-azido-p3 A3 complex; assay type: biochemical, murine; details: 1×10^-6 M 8-azido-p3 A3, 60 s UV 254 nm; in words
Experimental: Ten microliters of L929 cell extract (100 microgram protein/assay) were combined with ten microliters buffer (140 mM NaCl, 35 mM Tris-HCl, pH 7.5) and were incubated in the presence of 1×10^-6 M 8-azido-p3 A3 in a 30 microliter final volume. The sample was transferred to ice-cold porcelain spot plates and photolysed for 60 second using a 254 nm UVG-11 Mineralight lamp at a distance of 2 cm (1.0 J/m^2) to photolabel the RNase L/8-azido-p3 A3 complex. A ribosomal RNA cleavage assay was performed as described above, but using the photolabelled complex.

In the case of “5'-0-triphosphoryl-(2-azidoadenylyl)(2'-5')2-azidoadenylyl(2'5')2-azidoadenosine [2-azido-p3 A3]”, the “final concentration at which RNase L is activated to degrade rRNA to specific cleavage products” value (RNase L [1]) is reported as 10^-9 M, the “concentration dependence of rRNA degradation” value (RNase L [1]) is reported as “concentration dependent” and the “potency in rRNA degradation relative to authentic p3 A3” value (RNase L [1]) is reported as “as potent as authentic p3 A3”. For the same substance, the “biological activity (RNase L binding and activation) relative to authentic 2-5A” value (RNase L [1]) was “almost identical to that of authentic 2-5A”, the “size of photolabelled protein” value ([2]; 1×10^-6 M [gamma-^32 P]2-azido-p3 A3, 60 s UV, protein a) was 185,000 dalton and the “UV exposure time for maximal photo-crosslinking” value [2] was 60 s. For the same substance, the “molecular weight of protein(s) specifically photolabelled / cross-linked” value [2] was 185,000 and the “number of proteins photolabelled / cross-linked” value [2] was “one”.
With “5'-0-triphosphoryl-(8-azidoadenylyl)(2'-5')8-azidoadenylyl(2'-5')8-azidoadenosine [8-azido-p3 A3]” the “inhibition of p3 A4 [^32 P]pCp binding to RNase L” value (RNase L [3]) was “inhibited p3 A4 [^32 P]pCp binding to RNase L in a concentration dependent manner”, the “potency in activating RNase L relative to authentic p3 A3” value (RNase L [4]) was “equipotent to authentic p3 A3” and the “final concentration at which RNase L is activated to degrade rRNA to specific cleavage products” value (RNase L [1]) was 10^-9 M. The “concentration dependence of rRNA degradation” value (RNase L [1]) was “concentration dependent”, the “potency in rRNA degradation relative to authentic p3 A3” value (RNase L [1]) was “as potent as authentic p3 A3” and the “biological activity (RNase L binding and activation) relative to authentic 2-5A” value (RNase L [1]) was “almost identical to that of authentic 2-5A”. For the same substance, the “UV exposure time for maximal photo-crosslinking” value [2] was 60 s, the “molecular weight of protein(s) specifically photolabelled / cross-linked” value [2] was 46,000-158,000 and the “number of proteins photolabelled / cross-linked” value [2] was “six”. For the same substance, the “rRNA cleavage by RNase L after photolabelling” value (RNase L [5]) was “observed to cleave 18S and 28S rRNA to the same specific cleavage products characteristic of RNase L activation by 8-azido-p3 A3 without photoactivation”.
